Results: PMC6556873, “Rapid Covalent-Probe Discovery by Electrophile-Fragment Screening” (Journal of the American Chemical Society, 2019)
Read-outs that look alike come from different tables or passages of the source.

Legend:
in vitro [1] = experiment: in vitro; set-up: species or system CCD841, HEK293; details: human, hb2 cells, read-out: HB-2 Cells Viability (%)
in vitro [2] = experiment: in vitro; set-up: species or system HB2, HEK293; details: human, ccd841 cells
BSA = molecular target: T1, BSA (Bos taurus, UniProt P02769); set-up: Intact protein LC/MS covalent labelling, fragments in pools of five, 200 uM each, 4 °C; details: 24 h, 4 °C, pool of five; 200 µM; covalent
T1 construct: gene ALB

NUDT7 = molecular target: T2, NUDT7 (Homo sapiens, UniProt P0C024); set-up: Intact protein LC/MS covalent labelling, fragments in pools of five, 200 uM each, 4 °C; details: 24 h, 4 °C, pool of five; 200 µM; covalent
T2 construct: residues 14-235, E. coli, pNIC28-Bsa4, N-terminal His6 tag removed by TEV, construct 26672 Da

PCAF = molecular target: T3, PCAF (Homo sapiens, UniProt Q92831); set-up: Intact protein LC/MS covalent labelling, fragments in pools of five, 200 uM each, 4 °C; details: 24 h, 4 °C, pool of five; 200 µM; covalent
T3 construct: gene KAT2B

OTUB2 (OTUB2A) = molecular target: T4, OTUB2 (OTUB2A) (Homo sapiens, UniProt Q96DC9); set-up: Intact protein LC/MS covalent labelling, fragments in pools of five, 200 uM each, 4 °C; details: 24 h, 4 °C, pool of five; 200 µM; covalent
T4 construct: full length residues 1-234, E. coli BL21(DE3)-R3, His tag removed by TEV, construct 27312 Da
T4 sequence (Q96DC9 1-234): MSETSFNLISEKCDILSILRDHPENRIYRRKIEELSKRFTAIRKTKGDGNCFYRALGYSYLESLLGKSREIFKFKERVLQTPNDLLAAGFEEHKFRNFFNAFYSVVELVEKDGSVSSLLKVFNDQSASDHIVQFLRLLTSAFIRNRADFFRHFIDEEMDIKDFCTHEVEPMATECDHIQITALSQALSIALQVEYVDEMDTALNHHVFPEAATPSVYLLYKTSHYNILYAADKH

in vitro [3] = experiment: in vitro; set-up: species or system HB2, CCD841; details: human, hek293 cells

T1 sequence (P02769 whole entry, the tested form may be a part): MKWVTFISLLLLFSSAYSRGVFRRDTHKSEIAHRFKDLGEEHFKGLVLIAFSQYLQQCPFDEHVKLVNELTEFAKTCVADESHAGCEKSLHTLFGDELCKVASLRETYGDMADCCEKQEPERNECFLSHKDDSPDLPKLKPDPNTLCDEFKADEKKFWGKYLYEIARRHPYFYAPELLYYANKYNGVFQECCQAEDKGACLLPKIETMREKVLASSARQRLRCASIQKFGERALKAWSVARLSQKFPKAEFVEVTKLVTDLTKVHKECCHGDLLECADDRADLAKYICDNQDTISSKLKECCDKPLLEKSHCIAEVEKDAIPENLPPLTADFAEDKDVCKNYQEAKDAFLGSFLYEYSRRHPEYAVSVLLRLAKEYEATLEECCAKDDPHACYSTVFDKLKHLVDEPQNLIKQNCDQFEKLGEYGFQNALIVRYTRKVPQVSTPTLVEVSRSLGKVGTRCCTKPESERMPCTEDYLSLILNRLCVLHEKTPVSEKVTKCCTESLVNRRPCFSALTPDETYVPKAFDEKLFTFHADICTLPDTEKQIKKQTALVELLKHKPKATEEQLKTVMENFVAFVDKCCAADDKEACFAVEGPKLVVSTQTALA
T3 sequence (Q92831 whole entry, the tested form may be a part): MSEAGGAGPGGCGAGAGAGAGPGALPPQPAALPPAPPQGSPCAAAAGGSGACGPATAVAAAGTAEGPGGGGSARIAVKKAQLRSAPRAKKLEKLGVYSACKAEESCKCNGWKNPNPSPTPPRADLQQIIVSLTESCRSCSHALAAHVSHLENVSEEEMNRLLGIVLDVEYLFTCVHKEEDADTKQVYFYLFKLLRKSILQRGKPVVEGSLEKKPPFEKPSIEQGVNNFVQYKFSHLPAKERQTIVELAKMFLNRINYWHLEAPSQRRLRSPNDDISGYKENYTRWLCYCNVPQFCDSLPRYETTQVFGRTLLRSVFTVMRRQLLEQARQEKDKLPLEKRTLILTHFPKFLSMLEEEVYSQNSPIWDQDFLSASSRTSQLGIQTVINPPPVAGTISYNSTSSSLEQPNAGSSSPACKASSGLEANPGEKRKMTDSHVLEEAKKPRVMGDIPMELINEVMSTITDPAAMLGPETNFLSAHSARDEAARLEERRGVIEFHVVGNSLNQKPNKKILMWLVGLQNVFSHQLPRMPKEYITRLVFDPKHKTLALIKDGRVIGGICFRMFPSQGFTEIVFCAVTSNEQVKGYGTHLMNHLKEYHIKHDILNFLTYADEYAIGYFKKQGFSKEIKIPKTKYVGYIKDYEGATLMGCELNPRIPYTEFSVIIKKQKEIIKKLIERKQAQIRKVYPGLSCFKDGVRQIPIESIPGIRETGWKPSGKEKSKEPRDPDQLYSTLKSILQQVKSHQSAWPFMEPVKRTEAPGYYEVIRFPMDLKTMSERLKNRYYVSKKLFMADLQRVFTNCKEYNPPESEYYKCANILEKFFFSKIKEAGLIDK
T2 sequence (P0C024 14-235): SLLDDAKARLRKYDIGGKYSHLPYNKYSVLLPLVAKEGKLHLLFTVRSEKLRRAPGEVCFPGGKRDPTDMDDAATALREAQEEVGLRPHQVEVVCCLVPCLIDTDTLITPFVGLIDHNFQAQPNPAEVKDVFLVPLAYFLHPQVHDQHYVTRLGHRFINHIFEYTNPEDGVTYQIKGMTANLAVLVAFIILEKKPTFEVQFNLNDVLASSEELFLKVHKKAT

SMILES	viability at 48 h, 10 µM (in vitro [1]) [%]	viability at 48 h, 10 µM (in vitro [2]) [%]	BSA (BSA)	NUDT7 (NUDT7)	PCAF (PCAF)	OTUB2 (OTUB2 (OTUB2A))	viability at 48 h, 10 µM (in vitro [3]) [%]
C=CC(=O)N1CCn2c(cc3ccc(Cl)cc32)C1 [PCM-0102503]	98.2	102	0	0	0	0	74.4
O=C(CCl)NC(=O)OCc1ccccc1 [PCM-0102153]	96	109	0	0	0	0.79	82.8
Cc1c(C#N)c(NC(=O)CCl)n(-c2cccc(F)c2)c1C [PCM-0102146]	25	47.1	0	0.58	0	0.1	3.5
CCC1(C)NC(=O)N(NC(=O)CCl)C1=O (stereo not drawn) [PCM-0102205]	96.9	85.3	0	0	0	0	88
COC(=O)C1Cc2ccccc2CN1C(=O)CCl (stereo not drawn) [PCM-0102841]	96.4	77.3	0	0.19	0	0.41	60.3
CC1CN(C(=O)CCl)CC(C)O1 (stereo not drawn) [PCM-0102796]	92.9	76.2	0	0	0	0	66.2
O=C(CCl)NCc1ccco1 [PCM-0102671]	102	86	0	0	0	0.35	86.2
CCN(C(=O)CCl)C1CCS(=O)(=O)C1 (stereo not drawn) [PCM-0102105]	95	68.1	0	0	0	0	54.9
C=CC(=O)NCC1CCCCC1 [PCM-0102766]	97.5	114	0	0.05	0	0	79
O=C(CCl)NC(=O)c1cccc2ccccc12 [PCM-0102694]	101	112	0	0	0	0	111
O=C(CCl)Nc1ccc(-c2nnc3n2CCCCC3)cc1 [PCM-0102101]	36.7	61.9	0	0	0	0.28	17.5
Cc1ccc(N(C(=O)CCl)C2C=CS(=O)(=O)C2)cc1 (stereo not drawn) [PCM-0102539]	23.3	31.5	0	0.33	0	0.16	4.7
O=C(CCl)N1CCC2(CC1)OCCO2 [PCM-0102823]	98.2	99.2	0	0	0	0	91.5
O=C(CCl)N1CCN(Cc2ccccc2)C1=O [PCM-0102919]	102	96.2	0	0	0	0.1	90.9
Cl.O=C(CCl)N1CCN(c2cccc(C(F)(F)F)c2)CC1 [PCM-0102239]	4.2	28.2	0.07	0.08	0	0	19.6
C=CC(=O)NCc1cccc(C(F)(F)F)c1 [PCM-0102825]	97.4	107	0	0	0	0	82.3
C=CC(=O)NCC1=CCCCC1 [PCM-0102726]	105	99.1	0.1	0	0	0	89.9

SMILES	viability at 48 h, 10 µM (in vitro [1]) [%]	viability at 48 h, 10 µM (in vitro [2]) [%]	BSA (BSA)	NUDT7 (NUDT7)	PCAF (PCAF)	OTUB2 (OTUB2 (OTUB2A))	viability at 48 h, 10 µM (in vitro [3]) [%]
CN(CC12CC3CC(CC(C3)C1)C2)C(=O)CCl [PCM-0102942]	7.8	6.7	0	0.26	0	0.1	2.4
C=CC(=O)NC(O)C(Cl)(Cl)Cl (stereo not drawn) [PCM-0102963]	102	89.7	0	0	0	0	94.7
C=CC(=O)N1CCCC(C(C)NC(=O)NC(C)(C)C)C1 (stereo not drawn) [PCM-0102723]	105	109	0	0	0	0	99.2
COc1cc(Cl)c(C)cc1NC(=O)CCl [PCM-0102210]	8.5	64.1	0	0	0	0.25	5.5
O=C(CCl)Nc1ccc(Cl)nc1 [PCM-0102891]	31.5	33.2	0	0.25	0	0	9
NS(=O)(=O)c1cccc(NC(=O)CCl)c1 [PCM-0102162]	17.4	35.4	0	0	0	0.58	1.1
C=CC(=O)N1CCCC(NC(=O)c2ccc(C(F)(F)F)cc2)C1 (stereo not drawn) [PCM-0102607]	98.9	100	0	0	0	0	114
CN(C(=O)CCl)c1nc2ccccc2s1 [PCM-0102894]	88.4	83.6	0	0.34	0	0	87.7
O=C(CCl)NC(=O)c1ccccc1Cl [PCM-0102422]	99.7	110	0	0	0	0	93
O=C(CCl)NC(=O)Nc1ccccc1F [PCM-0102376]	63.5	80.5	0	0	0	0	67.8
CC(C)CNC(=O)NC(=O)CCl [PCM-0102502]	78	80.7	0	0	0	0	52.7
CN(Cc1ccccc1F)C(=O)CCl [PCM-0102787]	57.7	72.2	0	0	0	0	57.9
N#CC1(NC(=O)CCl)CCCCCC1 [PCM-0102465]	80.7	72.3	0	0	0	0	43.5
C=CC(=O)N1CCN(c2ccnc(-c3ccccc3)n2)CC1 [PCM-0102515]	88.8	105	0	0	0	0	73
CC(NC(=O)CCl)c1cccs1 (stereo not drawn) [PCM-0102180]	93.5	78.5	0.24	0.16	0	0.55	75.1
CC1CCCCC1N(C)C(=O)CCl (stereo not drawn) [PCM-0103026]	18.3	57	0	0.12	0	0	31.2
